Here are results for 2 compounds from ChEMBL document CHEMBL1139631, “Inhibition of hydrogen peroxide-induced necrotic cell death with 3-amino-2-indolylmaleimide derivatives” (Bioorg Med Chem Lett, 2005).

Set-up in all cases: scale not given: the % may be the effect or the level left
Assay [1] deals with T1, Serine/threonine-protein kinase D1 (Homo sapiens) (UniProt Q15139).
T1 sequence (whole entry): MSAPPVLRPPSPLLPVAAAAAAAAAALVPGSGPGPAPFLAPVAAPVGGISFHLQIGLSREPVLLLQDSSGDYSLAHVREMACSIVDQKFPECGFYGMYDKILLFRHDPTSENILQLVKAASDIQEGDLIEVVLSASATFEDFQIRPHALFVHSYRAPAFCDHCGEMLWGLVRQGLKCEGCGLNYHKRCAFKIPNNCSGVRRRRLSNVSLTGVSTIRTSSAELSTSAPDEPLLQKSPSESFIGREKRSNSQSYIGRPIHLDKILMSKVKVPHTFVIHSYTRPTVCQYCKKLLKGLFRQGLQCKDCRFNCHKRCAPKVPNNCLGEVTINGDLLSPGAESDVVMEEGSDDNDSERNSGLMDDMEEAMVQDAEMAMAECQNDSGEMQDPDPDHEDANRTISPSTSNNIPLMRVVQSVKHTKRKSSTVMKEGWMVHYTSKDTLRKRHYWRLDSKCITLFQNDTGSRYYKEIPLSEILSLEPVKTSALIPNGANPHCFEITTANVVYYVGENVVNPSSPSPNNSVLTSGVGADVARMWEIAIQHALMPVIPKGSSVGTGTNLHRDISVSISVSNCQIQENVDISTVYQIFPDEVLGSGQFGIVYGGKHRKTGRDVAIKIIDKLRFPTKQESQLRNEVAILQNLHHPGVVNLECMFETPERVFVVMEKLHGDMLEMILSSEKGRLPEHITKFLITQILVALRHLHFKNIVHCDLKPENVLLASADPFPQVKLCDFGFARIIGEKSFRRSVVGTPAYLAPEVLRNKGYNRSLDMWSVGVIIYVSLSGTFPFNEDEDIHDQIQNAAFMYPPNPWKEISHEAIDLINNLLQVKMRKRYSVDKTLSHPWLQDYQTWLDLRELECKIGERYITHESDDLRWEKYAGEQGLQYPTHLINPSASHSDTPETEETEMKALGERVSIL
The assay is described as follows: Percentage inhibition of Protein kinase C mu at 50 uM.

For assay [2], the target named is Protein kinase C eta type (Homo sapiens) (UniProt P24723). The assay is described as follows: Percentage inhibition of Protein kinase C eta at 50 uM.
In assay [3] the target is T2, Protein kinase C iota type (Homo sapiens) (UniProt P41743).
T2 sequence (whole entry): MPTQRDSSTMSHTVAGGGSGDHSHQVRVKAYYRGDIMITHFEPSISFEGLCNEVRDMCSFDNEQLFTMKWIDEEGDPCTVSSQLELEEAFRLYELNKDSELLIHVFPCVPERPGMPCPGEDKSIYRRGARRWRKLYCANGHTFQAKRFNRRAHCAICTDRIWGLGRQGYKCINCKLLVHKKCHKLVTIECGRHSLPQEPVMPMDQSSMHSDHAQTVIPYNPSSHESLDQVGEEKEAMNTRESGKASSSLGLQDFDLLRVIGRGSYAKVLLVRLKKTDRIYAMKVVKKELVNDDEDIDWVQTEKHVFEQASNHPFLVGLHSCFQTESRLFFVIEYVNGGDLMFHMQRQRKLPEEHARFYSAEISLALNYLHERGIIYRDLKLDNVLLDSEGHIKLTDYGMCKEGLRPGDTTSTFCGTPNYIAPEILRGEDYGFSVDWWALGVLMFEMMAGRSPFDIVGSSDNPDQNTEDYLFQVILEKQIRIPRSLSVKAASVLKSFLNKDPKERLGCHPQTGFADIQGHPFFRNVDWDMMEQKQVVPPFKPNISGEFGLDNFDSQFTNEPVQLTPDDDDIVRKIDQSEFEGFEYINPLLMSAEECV
The assay is described as follows: Percentage inhibition of Protein kinase C iota at 50 uM.

Assay [4] deals with T3, Protein kinase C zeta type (Homo sapiens) (UniProt Q05513).
T3 sequence (whole entry): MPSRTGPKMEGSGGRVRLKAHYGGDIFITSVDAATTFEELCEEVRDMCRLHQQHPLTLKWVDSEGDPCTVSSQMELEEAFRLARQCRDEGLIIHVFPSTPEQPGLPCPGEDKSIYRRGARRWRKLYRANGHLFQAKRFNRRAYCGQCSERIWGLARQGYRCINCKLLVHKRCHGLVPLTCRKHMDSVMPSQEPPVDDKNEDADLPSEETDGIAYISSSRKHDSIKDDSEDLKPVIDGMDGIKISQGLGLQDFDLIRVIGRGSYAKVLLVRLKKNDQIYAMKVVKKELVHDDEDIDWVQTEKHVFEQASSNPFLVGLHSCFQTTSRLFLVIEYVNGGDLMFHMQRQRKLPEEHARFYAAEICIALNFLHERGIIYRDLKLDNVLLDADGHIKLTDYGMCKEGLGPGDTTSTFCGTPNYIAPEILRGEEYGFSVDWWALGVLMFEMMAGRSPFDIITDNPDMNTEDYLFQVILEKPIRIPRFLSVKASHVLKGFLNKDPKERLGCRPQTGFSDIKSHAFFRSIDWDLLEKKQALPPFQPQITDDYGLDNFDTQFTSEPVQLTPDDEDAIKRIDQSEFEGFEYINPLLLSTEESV
The assay is described as follows: Percentage inhibition against Protein kinase C zeta at 50 uM.

Assay [5] deals with Protein kinase C alpha type (Homo sapiens) (UniProt P17252). The assay is described as follows: Percentage inhibition of Protein kinase C alpha at 50 uM.
Assay [6] concerns the target Protein kinase C delta type (Homo sapiens) (UniProt Q05655). The assay is described as follows: Percentage inhibition of Protein kinase C delta at 50 uM.
The target of assay [7] is Protein kinase C gamma type (Homo sapiens) (UniProt P05129). The assay is described as follows: Percentage inhibition of Protein kinase C gamma at 50 uM.
The target in assay [8] is Protein kinase C theta type (Homo sapiens) (UniProt Q04759). The assay is described as follows: Percentage inhibition of Protein kinase C theta at 50 uM.
Assay [9] deals with Protein kinase C beta type (Homo sapiens) (UniProt P05771). The assay is described as follows: Percentage inhibition of Protein kinase C beta 1 at 50 uM.
For assay [10] the target is unchanged. The assay is described as follows: Percentage inhibition of Protein kinase C beta 2 at 50 uM.
For assay [11], the target named is T4, Protein kinase C epsilon type (Homo sapiens) (UniProt Q02156).
T4 sequence (whole entry): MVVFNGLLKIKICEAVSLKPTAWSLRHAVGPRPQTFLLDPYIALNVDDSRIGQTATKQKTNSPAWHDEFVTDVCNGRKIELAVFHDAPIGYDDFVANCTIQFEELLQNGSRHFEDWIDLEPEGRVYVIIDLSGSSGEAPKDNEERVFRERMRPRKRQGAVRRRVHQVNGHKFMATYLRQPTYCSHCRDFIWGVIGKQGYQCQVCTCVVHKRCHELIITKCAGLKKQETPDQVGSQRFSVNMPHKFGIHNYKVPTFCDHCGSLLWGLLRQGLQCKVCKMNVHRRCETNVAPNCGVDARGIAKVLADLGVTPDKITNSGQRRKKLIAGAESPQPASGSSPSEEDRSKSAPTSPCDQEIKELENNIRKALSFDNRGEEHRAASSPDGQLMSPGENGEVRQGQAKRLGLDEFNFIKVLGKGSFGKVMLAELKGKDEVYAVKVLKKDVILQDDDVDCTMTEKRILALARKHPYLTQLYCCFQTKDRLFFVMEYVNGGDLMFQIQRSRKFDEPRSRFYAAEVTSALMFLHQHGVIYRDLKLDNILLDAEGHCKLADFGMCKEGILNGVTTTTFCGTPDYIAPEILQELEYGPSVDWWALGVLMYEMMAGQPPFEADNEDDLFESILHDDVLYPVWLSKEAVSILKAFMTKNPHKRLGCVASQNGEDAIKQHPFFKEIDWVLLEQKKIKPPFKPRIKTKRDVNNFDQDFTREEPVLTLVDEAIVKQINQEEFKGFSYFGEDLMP
The assay is described as follows: Percentage inhibition of Protein kinase C epsilon at 50 uM.

For assay [12], the target named is Ribosomal protein S6 kinase beta-1 (Homo sapiens) (UniProt P23443). The assay is described as follows: Percentage inhibition of Ribosomal protein S6 kinase at 50 uM.

Structures are written as SMILES.

Chain of Protein kinase C beta type (Homo sapiens) (P05771 2-671 limits assumed): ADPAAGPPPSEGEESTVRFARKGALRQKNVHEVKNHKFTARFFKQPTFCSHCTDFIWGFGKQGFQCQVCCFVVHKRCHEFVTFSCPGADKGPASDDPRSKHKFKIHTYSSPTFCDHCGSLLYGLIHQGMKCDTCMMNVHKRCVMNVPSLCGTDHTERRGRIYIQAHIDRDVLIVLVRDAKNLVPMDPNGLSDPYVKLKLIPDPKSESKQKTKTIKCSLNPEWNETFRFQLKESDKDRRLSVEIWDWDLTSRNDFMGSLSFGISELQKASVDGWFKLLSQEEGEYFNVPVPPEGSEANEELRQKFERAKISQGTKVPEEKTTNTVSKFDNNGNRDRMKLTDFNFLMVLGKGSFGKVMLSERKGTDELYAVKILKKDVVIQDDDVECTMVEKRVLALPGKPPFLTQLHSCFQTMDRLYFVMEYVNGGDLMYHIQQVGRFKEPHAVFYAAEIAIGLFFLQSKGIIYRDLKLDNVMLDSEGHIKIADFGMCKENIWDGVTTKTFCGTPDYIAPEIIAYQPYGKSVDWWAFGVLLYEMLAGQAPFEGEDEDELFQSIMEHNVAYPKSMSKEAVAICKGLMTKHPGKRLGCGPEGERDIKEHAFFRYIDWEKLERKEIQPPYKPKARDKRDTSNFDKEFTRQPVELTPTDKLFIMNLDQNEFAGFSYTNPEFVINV
Chain of Ribosomal protein S6 kinase beta-1 (Homo sapiens) (P23443 whole entry, looked up): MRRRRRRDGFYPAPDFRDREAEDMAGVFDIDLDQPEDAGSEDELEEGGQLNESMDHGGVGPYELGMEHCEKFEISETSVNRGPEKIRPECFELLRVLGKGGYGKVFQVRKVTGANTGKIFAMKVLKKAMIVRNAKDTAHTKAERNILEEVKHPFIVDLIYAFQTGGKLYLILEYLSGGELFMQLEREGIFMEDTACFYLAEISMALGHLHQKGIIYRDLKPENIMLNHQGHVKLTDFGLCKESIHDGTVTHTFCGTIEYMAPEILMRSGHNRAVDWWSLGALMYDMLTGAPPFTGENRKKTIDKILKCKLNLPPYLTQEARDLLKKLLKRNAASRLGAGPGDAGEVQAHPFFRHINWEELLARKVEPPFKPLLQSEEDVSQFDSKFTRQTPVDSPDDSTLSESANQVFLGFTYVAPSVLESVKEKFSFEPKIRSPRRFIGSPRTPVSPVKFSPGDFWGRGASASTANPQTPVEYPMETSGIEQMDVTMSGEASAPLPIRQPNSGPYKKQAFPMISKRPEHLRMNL
Chain of Protein kinase C eta type (Homo sapiens) (P24723 whole entry): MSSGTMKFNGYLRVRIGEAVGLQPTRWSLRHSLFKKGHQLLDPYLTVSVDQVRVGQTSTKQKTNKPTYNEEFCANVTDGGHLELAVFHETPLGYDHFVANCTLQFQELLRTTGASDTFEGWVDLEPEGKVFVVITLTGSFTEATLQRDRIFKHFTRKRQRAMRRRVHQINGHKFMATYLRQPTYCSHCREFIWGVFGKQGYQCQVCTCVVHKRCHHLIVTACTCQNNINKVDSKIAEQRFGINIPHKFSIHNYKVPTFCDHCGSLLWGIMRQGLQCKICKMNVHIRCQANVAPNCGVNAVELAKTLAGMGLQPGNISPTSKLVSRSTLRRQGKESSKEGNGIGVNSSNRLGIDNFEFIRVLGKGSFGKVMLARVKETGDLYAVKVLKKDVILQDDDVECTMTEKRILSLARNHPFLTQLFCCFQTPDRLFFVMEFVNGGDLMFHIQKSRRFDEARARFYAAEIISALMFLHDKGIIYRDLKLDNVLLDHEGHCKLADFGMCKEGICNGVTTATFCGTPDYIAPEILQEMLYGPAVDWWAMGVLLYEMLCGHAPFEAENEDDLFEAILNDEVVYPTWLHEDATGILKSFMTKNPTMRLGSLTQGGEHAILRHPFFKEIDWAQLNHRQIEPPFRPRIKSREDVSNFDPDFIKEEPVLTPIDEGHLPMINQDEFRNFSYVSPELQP
Chain of Protein kinase C delta type (Homo sapiens) (Q05655 whole entry, looked up): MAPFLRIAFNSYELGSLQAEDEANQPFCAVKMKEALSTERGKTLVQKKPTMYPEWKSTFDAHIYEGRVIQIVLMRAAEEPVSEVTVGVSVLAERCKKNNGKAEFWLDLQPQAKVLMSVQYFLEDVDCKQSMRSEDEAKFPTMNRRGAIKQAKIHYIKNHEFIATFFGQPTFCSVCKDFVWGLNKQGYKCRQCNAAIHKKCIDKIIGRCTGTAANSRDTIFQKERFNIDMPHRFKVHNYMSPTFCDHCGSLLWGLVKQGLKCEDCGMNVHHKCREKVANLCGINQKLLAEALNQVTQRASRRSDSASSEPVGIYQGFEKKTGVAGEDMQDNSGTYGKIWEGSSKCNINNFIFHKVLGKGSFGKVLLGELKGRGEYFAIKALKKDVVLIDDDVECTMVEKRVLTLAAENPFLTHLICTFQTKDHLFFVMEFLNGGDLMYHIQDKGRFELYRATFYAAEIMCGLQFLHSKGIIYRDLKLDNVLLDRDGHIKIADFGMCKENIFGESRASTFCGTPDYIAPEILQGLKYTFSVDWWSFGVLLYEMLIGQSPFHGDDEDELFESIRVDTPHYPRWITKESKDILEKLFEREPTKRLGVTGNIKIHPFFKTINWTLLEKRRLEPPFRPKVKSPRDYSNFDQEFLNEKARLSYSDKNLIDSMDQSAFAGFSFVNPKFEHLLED
Chain of Protein kinase C theta type (Homo sapiens) (Q04759 whole entry, looked up): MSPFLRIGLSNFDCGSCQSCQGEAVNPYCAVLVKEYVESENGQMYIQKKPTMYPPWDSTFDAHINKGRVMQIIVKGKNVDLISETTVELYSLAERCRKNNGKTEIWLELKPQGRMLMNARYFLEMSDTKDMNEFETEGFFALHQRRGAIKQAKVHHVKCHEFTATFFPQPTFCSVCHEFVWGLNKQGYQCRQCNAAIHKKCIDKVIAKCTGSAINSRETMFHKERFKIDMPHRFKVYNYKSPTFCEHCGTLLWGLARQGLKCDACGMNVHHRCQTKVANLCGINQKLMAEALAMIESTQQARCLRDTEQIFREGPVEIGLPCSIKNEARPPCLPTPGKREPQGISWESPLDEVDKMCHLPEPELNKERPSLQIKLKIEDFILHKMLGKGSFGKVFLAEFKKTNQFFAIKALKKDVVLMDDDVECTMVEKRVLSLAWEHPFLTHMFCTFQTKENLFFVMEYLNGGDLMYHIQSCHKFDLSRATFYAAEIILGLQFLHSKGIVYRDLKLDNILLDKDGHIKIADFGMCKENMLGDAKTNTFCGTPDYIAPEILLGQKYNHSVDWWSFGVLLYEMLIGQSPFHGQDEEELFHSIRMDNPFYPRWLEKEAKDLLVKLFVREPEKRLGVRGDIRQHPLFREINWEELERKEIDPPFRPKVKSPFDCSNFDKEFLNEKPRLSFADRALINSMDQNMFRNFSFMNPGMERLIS

Take `CCCCCNC1=C(c2cn(C)c3ccccc23)C(=O)N(C)C1=O`: the Activity in assay [1] turned out to be 97%; in assay [2], 98%; in [3], 96%; in assay [4], 100%; in assay [5], 95%; in [6], 108%. Further, the Activity was 115% in [7]; 100% in assay [8]; 84% in [9]; 106% in assay [10]; 95% in [11]; 96% in [12].
Consider `CN1C(=O)C(c2c[nH]c3ccccc23)=C(c2cn(CCCN)c3ccccc23)C1=O`, for which the Activity in [1] is 88%; in [2] it was 55%; in [3] it was 87%; in assay [4], 85%; in assay [5] it was 66%; in assay [6] it was 82%. The Activity in assay [7] came to 85%; in assay [8], 78%; in assay [9], 78%; in [10] it was 84%; in assay [11], 10%; in assay [12], 28%.
